Measurements reported in ChEMBL document CHEMBL1201862, “PubChem BioAssay data set” (2004).
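Briefly, cells in 96-well plates were exposed to five compound concentrations for 48 h, and endpoints were estimated by linear interpolation. GI50 is the concentration that inhibits growth by half.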 Active and inactive are the calls of the source. Rule as the data show it: active = GI50 up to about 1.1 µM and inactive = higher.

Tests used:
Assay in all cases: inhibition of tumour cell growth, NCI panel, 48 h
HT-29 = test system: HT-29
SK-MEL-28 = test system: SK-MEL-28
T47D = test system: T47D
NCI/ADR-RES = test system: NCI/ADR-RES
HL-60 = test system: HL-60
SF-268 = test system: SF-268
UO-31 = test system: UO-31
OVCAR-5 = test system: OVCAR-5
HCT-15 = test system: HCT-15
MDA-MB-231 = test system: MDA-MB-231
NCI-H226 = test system: NCI-H226
786-0 = test system: 786-0
RPMI-8226 = test system: RPMI-8226
HCC 2998 = test system: HCC 2998
SF-539 = test system: SF-539
UACC-62 = test system: UACC-62
DU-145 = test system: DU-145
M14 = test system: M14
OVCAR-8 = test system: OVCAR-8
SR = test system: SR

Compound | GI50 (HT-29) | GI50 (SK-MEL-28) | GI50 (T47D) | GI50 (NCI/ADR-RES) | GI50 (HL-60) | GI50 (SF-268) | GI50 (UO-31) | GI50 (OVCAR-5) | GI50 (HCT-15) | GI50 (MDA-MB-231) | GI50 (NCI-H226) | GI50 (786-0) | GI50 (RPMI-8226) | GI50 (HCC 2998) | GI50 (SF-539) | GI50 (UACC-62) | GI50 (DU-145) | GI50 (M14) | GI50 (OVCAR-8) | GI50 (SR)
O=C1C=CC2(O[C@H](c3ccccc3)[C@@H](c3ccccc3)O2)[C@H](Sc2ccccc2O)C1 | 0.398 µM (active) | 1.36 µM (inactive) | 0.785 µM (active) | 0.414 µM (active) | 0.264 µM (active) | 0.29 µM (active) | 0.665 µM (active) | 2.35 µM (inactive) | 0.221 µM | 0.839 µM (active) | 2.72 µM (inactive) | 0.15 µM (active) | 0.0424 µM (active) | 0.454 µM (active) | 0.757 µM (active) | 0.841 µM (active) | 1.22 µM (inactive) | 0.233 µM (active) | 0.105 µM (active) | 
[N-]=[N+]=Nc1c(Cl)c(Cl)nc2ccccc12 | > 100 µM (inactive) | > 100 µM (inactive) | 68.1 µM (inactive) | > 100 µM (inactive) |  | > 100 µM (inactive) | > 100 µM (inactive) | > 100 µM (inactive) | > 100 µM | 81.5 µM (inactive) | 66.7 µM (inactive) | > 100 µM (inactive) | 62.8 µM (inactive) | > 100 µM (inactive) | > 100 µM (inactive) | > 100 µM (inactive) | 72.1 µM (inactive) | > 100 µM (inactive) | > 100 µM (inactive) | > 100 µM (inactive)
O=C(O)Cn1cnc2c(O)nc(Nc3ccccc3)nc21 | > 100 µM (inactive) | > 100 µM (inactive) | > 100 µM (inactive) | > 100 µM (inactive) |  | > 100 µM (inactive) |  | > 100 µM (inactive) | > 100 µM | > 100 µM (inactive) | > 100 µM (inactive) | > 100 µM (inactive) | > 100 µM (inactive) | > 100 µM (inactive) | > 100 µM (inactive) | > 100 µM (inactive) | > 100 µM (inactive) | > 100 µM (inactive) | > 100 µM (inactive) | > 100 µM (inactive)
S=C(Nc1ccc2c(c1)Cc1ccccc1-2)Nc1ccc2c(c1)Cc1ccccc1-2 | > 100 µM (inactive) | > 100 µM (inactive) | > 100 µM (inactive) | > 100 µM (inactive) | 7.08 µM (inactive) | > 100 µM (inactive) | > 100 µM (inactive) | > 100 µM (inactive) | > 100 µM | > 100 µM (inactive) | > 100 µM (inactive) | > 100 µM (inactive) | > 100 µM (inactive) | > 100 µM (inactive) |  | > 100 µM (inactive) | > 100 µM (inactive) | > 100 µM (inactive) | > 100 µM (inactive) | 
C[C@]1(O)CC(=O)c2c(c(-c3ccc4cc5c(c(O)c4c3O)C(=O)C[C@@](C)(O)C5)c3cccc(O)c3c2O)C1 | 5.71 µM (inactive) | 10.4 µM (inactive) | 2.86 µM (inactive) | 5.15 µM (inactive) |  | 4.31 µM (inactive) | 4.16 µM (inactive) | 9.46 µM (inactive) | 3.76 µM | 4.91 µM (inactive) | 3.85 µM (inactive) | 5.37 µM (inactive) | 4.67 µM (inactive) | 4.58 µM (inactive) | 2.75 µM (inactive) | 5.64 µM (inactive) | 5.53 µM (inactive) | 5.56 µM (inactive) | 5.02 µM (inactive) | 5.56 µM (inactive)
CN(C)CCNCc1ccc2c(-c3ccccc3)nc3cc(Cl)c(Cl)cc3n12 | 8.3 µM (inactive) | 5.78 µM (inactive) | 4.94 µM (inactive) | 15.8 µM (inactive) | 2.01 µM (inactive) | 13.9 µM (inactive) | 7.83 µM (inactive) | 10.6 µM (inactive) | 9.62 µM | 10.2 µM (inactive) | 17.9 µM (inactive) | 5.96 µM (inactive) | 12.8 µM (inactive) | 2.33 µM (inactive) | 7.35 µM (inactive) | 8.85 µM (inactive) | 9.64 µM (inactive) | 8.13 µM (inactive) | 11.1 µM (inactive) | 
O=C(O)C(Cc1ccccc1-c1ccccc1)C(=O)O | > 100 µM (inactive) | > 100 µM (inactive) | > 100 µM (inactive) | > 100 µM (inactive) |  | > 100 µM (inactive) | > 100 µM (inactive) | > 100 µM (inactive) | > 100 µM | > 100 µM (inactive) | > 100 µM (inactive) | > 100 µM (inactive) | > 100 µM (inactive) |  | > 100 µM (inactive) | > 100 µM (inactive) | > 100 µM (inactive) | > 100 µM (inactive) | > 100 µM (inactive) | > 100 µM (inactive)
